Data reported in paper PMC5647335, “Controlling the bioactivity of a peptide hormone in vivo by reversible self-assembly” (Nature Communications, 2017).

System: CHO-hGLP-1R cells
Format: cell-based, Chinese hamster
Settings: 48 h treatment, resazurin 5 h, fluorescence 590 nm; Oxm concentrations up to 1000-fold above the EC50; three independent experiments
Description: CHO-hGLP-1R cells in growth medium (DMEM, 10%FBS Sigma-Aldrich) were plated at 10,000 cells per well in 96-well black clear-bottom poly-D-lysine-coated microtiter plates (Corning, USA). […] Fluorescence emission was measured at 590 nm (560 nm excitation).

Row | Structure (SMILES) | in vitro cytotoxicity (cell viability)
1 | Cn1cc(C2=C(c3cn(CCCSC(=N)N)c4ccccc34)C(=O)NC2=O)c2ccccc21 [Ro-318220] | expected curves of concentration vs. loss of cell viability
2 | CN[C@@H]1C[C@H]2O[C@@](C)([C@@H]1OC)n1c3ccccc3c3c4c(c5c6ccccc6n2c5c31)C(=O)NC4 [staurosporine] | expected curves of concentration vs. loss of cell viability
